Measured values taken from US12570627B2, “Pharmaceutical composition in which production of impurities is suppressed” (Shionogi & Co., Ltd., priority 2020, dated 2026).

Assays:
Assay type in all cases: physicochemical
[1] = 90% particle size distribution of bead mill wet-pulverized product, Mastersizer 2000 (Test Example 5); conditions: Mastersizer 2000, SDS aqueous dispersion
Procedure: The obtained slurry was wet-pulverized with a bead mill (DYNO-MILL nanodisperser research lab type, Willy A. Bachofen AG) and then filtered to obtain an anhydrate crystal (90% particle size distribution: 2.791 μm) of the compound represented by Formula (I). The 90% particle size distribution was measured by the method described in Test Example 5.
A 90% particle size distribution was measured according to the following method and conditions. • Measuring instrument: particle size distribution measuring apparatus (Mastersizer 2000, Malvern Panalytical Ltd) • Dispersion solvent: 0.1 g of sodium dodecyl sulfate (SDS) was dissolved in 1 L of water • Rotation speed: 2500 rpm • Ultrasound: 50% • Slurry concentration: adjusted between 10 to 20%

[2] = Stability testing of wet-kneaded vs untreated dry-pulverized product (Test Example 7)
Procedure: A standard sample of 5 ng/mL (corresponding to 5 ppm with respect to the sample solution) of the compound represented by Formula (ITI) was prepared by the following method. Step 1: About 20 mg of the compound represented by Formula (III) was weighed precisely, and a mixed solution of acetonitrile and water (4:1) was added to dissolve the compound to make exactly 100 mL. Step 2: One milliliter of the solution of Step 1 was accurately taken, and a mixed solution of acetonitrile and water (4:1) was added to make exactly 100 mL. Step 3: One milliliter of the solution of Step 2 was accurately taken, and a mixed solution of acetonitrile and water (4:1) was added to make exactly 100 mL. Step 4: Five milliliters of the solution of […] was accurately taken, and a mixed solution of acetonitrile and water (4:1) was added to make exactly 20 mL, thereby obtaining a standard solution. Step 1: A sample in an amount corresponding to 50 mg of the compound represented by Formula (I) or the like was added to a 50 mL volumetric flask. Step 2: To Step 1 was added 10 mL of water, and the mixture was irradiated with ultrasonic waves for 10 minutes to disintegrate the sample completely. The ultrasonic irradiation time was extended as necessary. Step 3: To Step 2 was added 25 mL of acetonitrile, and the mixture was irradiated with ultrasonic waves for 30 minutes. Step 4: After cooling, acetonitrile was added to make exactly 50 mL, a part of the liquid was centrifuged at 13000 rpm for 10 minutes, and the supernatant was used as a sample solution. An amount of the compound represented by Formula (III) was measured with a liquid chromatograph according to the following method and conditions. • Measuring instrument: LC/MS/MS (PM No. AES676) manufactured by Agilent Technologies, Inc. • Column: L-column 24.6×150 mm, 3 μm • Column temperature: constant temperature at near 35° C. • Mobile phase A: 10 mM ammonium acetate • Mobile phase B: acetonitrile for liquid chromatography • Feed of mobile phase: The mixing ratio of mobile phase A and mobile phase B was changed as shown in Table 14 to control concentration gradient. • Post runtime: 5 minutes • Flow rate: 0.5 mL/min (retention time of S202AA: about 9 minutes) • Injection amount: 5 μL • Sample cooler temperature: constant temperature at near 10° C. • Needle washing solution: acetonitrile for liquid chromatography • Ionization method: ESI • Scan type: MEM • Polarity: positive • Precursor ion: m/z=187.2 • Product ion: m/z=64.9 • Fragmentor: 120 • Collision energy: 33 • Capillary: 4000 V • Gas temperature: 350° C. • Gas flow rate: 12 L/min • Nebulizer: 40 psi • MS uptake time: 0 to 12 minutes (Calculation Formula) Content (ppm) of compound represented by Formula(III)=MS×P/100×(100−WS)/100×AT/AS×1/50×1/80000×1000000 (Mathematical formula 6) • MS: Weighing amount (mg) of compound represented by Formula (III) • P: Purity (%) of compound represented by Formula (III) • WS: Moisture (%) of compound represented by Formula (JII) • AS: Peak area of compound represented by Formula (III) obtained from standard solution • AT: Peak area of compound represented by Formula (III) obtained from sample solution (Results)

[3] = Stability testing, study of stabilizer / blending property test (Test Example 9)
Procedure: A blending property test was performed on the compound represented by Formula (I) or the like and an additive, and the amount of the compound represented by Formula (III) in the product stored over time was evaluated. The sample and additive used in Reference Example 4 were weighed and mixed uniformly with a mortar and a pestle. An appropriate amount of purified water was added to the mixture, and wet kneading was performed with a pestle. The resulting granulated product was sieved with a 20-mesh wire mesh, and dried at an aeration temperature of 60° C. for 30 minutes in an aeration dryer (TH-80, SATAKE CHEMICAL EQUIPMENT MFG., LTD.). Thereafter, the resulting product was further sieved with a 20-mesh wire mesh to obtain samples of Examples 10 to 14.
The samples of Examples 10 to 14 were subjected to a stability testing under a condition of 60° C. glass bottle closed (referred to as 60° C. closed in Table 17) and 40° C. glass bottle closed (referred to as 40° C. closed in Table 17) to evaluate the content of the compound represented by Formula (III).
The content of the compound represented by Formula (II) was confirmed in the same manner as in Test Example 7.

[4] = 40° C. glass bottle closed, 1 month
[5] = 40° C. glass bottle closed, 2 weeks
[6] = 40° C. glass bottle closed, 3 months
[7] = 60° C. glass bottle closed, 2 weeks

Compound: C[C@@H](Cn1c(=O)[nH]/c(=N\c2ccc(Oc3ccccn3)cc2)n(Cc2ccc(Cl)cc2)c1=O)C(=O)O [Example 7]
- 90% particle size distribution [1]: 2.791 μm

Compound: C[C@@H](Cn1c(=O)[nH]/c(=N\c2ccc(Oc3ccccn3)cc2)n(Cc2ccc(Cl)cc2)c1=O)C(=O)O [Reference Example 4]
- Content of compound represented by Formula (III), 40° C. glass bottle closed 1M [2, 4]: 17.2 ppm
- Content of compound represented by Formula (III), 40° C. glass bottle closed 2W [2, 5]: 10.7 ppm
- Content of compound represented by Formula (III), 40° C. glass bottle closed 3M [2, 6]: 23.9 ppm
- Content of compound represented by Formula (III), 40° C./75% RH glass bottle opened 1M ([2]; 40° C./75% RH glass bottle opened, 1 month): 13.1 ppm
- Content of compound represented by Formula (III), 40° C./75% RH glass bottle opened 2W ([2]; 40° C./75% RH glass bottle opened, 2 weeks): 9.4 ppm
- Content of compound represented by Formula (III), 40° C./75% RH glass bottle opened 3M ([2]; 40° C./75% RH glass bottle opened, 3 months): 19.7 ppm
- Content of compound represented by Formula (III), 60° C. glass bottle closed 2W [2, 7]: 10.9 ppm
- Content of compound represented by Formula (III), Initial ([2]; start of test): 3.0 ppm
- Amount of compound represented by Formula (III), 40° C. closed 1M [3, 4]: 17.2 ppm
- Amount of compound represented by Formula (III), 40° C. closed 2W [3, 5]: 10.7 ppm
- Amount of compound represented by Formula (III), 40° C. closed 3M [3, 6]: 23.9 ppm
- Amount of compound represented by Formula (III), 60° C. closed 2W [3, 7]: 10.9 ppm
- Amount of compound represented by Formula (III), Initial ([3]; start of test): 3.0 ppm
